ChEMBL document CHEMBL4814073, “Ring-opening of five-membered heterocycles conjugated 4-isopropylresorcinol scaffold-based benzamides as HSP90 inhibitors suppressing tumor growth in vitro and in vivo” (Eur J Med Chem, 2021)
Active and inactive are the calls of the source. No cut-off for these calls is given here.

Experiments:
Cytochrome P450 1A2 = biological target: T1, Cytochrome P450 1A2 (Homo sapiens, UniProt P05177); test: Inhibition of CYP1A2 in human liver microsomes using phenacetin as substrate by LC-MS/MS analysis; assay type: ADME
T1 sequence (P05177 whole entry): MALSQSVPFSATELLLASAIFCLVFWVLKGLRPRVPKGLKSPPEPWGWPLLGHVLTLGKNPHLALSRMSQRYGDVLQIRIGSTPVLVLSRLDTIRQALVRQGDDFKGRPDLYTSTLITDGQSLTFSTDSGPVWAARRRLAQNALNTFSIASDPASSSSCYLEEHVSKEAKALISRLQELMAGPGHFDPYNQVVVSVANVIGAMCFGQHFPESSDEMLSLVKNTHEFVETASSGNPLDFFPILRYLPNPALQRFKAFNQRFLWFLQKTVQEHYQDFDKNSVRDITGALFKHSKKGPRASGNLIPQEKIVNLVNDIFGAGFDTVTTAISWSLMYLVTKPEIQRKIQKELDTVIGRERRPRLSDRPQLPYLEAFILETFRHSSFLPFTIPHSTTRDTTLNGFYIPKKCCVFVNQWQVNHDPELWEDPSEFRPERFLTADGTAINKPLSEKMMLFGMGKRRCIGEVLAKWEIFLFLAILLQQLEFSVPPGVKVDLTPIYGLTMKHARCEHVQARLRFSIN

Heat shock protein HSP90 [1] = biological target: T2, Heat shock protein HSP90 (Homo sapiens, UniProt P07900+P08238); test: Inhibition of HSP90 in human A549 cells assessed as downregulation of FAK expression incubated for 24 hrs by immunoblot analysis; assay type: cell-based; details: dose microM <=3, time 24.0 hrs
A549 [2] = test: Induction of apoptosis in human A549 cells assessed as upregulation of p53 protein expression at 0.3 uM incubated for 24 hrs by Western blot analysis; assay type: functional, cell-based
[3] = AUC (0 to t) in Sprague-Dawley rat at 20 mg/kg, po measured after 1 hrs by LC-MS/MS analysis; assay type: ADME, organism-based; set-up: route oral, time 1 hrs, dose 20 mg/kg; details: in vivo
CYP2D6 = CYP2D6 (Homo sapiens, UniProt P10635); test: Inhibition of CYP2D6 in human liver microsomes using dextromethorphan as substrate at 50 uM by LC-MS/MS analysis; assay type: ADME; details: probe dextromethorphan
[4] = Cmax in Sprague-Dawley rat at 2 mg/kg, iv measured after 1 hrs by LC-MS/MS analysis; assay type: ADME, organism-based; set-up: route intravenous, time 1 hrs, dose 2 mg/kg; details: in vivo
[5] = Metabolic stability in human hepatocytes assessed as Intrinsic clearance by LC-MS/MS analysis; assay type: ADME, cell-based, Hepatocyte
661W = test: Cytotoxicity against mouse 661W cells by MTT based vision related toxicity assay; assay type: cell-based
[6] = AUC (0 to infinity) in Sprague-Dawley rat at 20 mg/kg, po measured after 1 hrs by LC-MS/MS analysis; assay type: ADME, organism-based; set-up: route oral, time 1 hrs, dose 20 mg/kg; details: in vivo
A549 [7] = test: Antitumor activity against human A549 cells xenografted in BALB/c mouse assessed as reduction in tumor growth inhibition at 50 mg/kg, po treated daily relative to control; details: read-out: TGI
[8] = Toxicity in BALB/c mouse xenografted with human H1975 cells assessed as reduction in body weight at 25 to 50 mg/kg, po treated daily relative to control; details: in vivo
A549 [9] = test: Induction of apoptosis in human A549 cells expressing wild type p53 assessed as caspase 3 cleavage at 0.3 uM incubated for 24 hrs by Western blot analysis; assay type: functional, cell-based
A549 [10] = test: Inhibition of MAPK signaling pathway in human A549 cells at 3 uM incubated for 24 hrs by immunoblot analysis; assay type: cell-based
[11] = Hepatic clearance in Beagle dog by LC-MS/MS analysis; assay type: ADME, tissue-based, Canis lupus familiaris, Hepatocyte; details: hepatocytes
A549 [12] = test: Induction of cell cycle arrest in human A549 cells assessed as decrease in cdc2 expression at Tyr15 at 0.3 uM incubated for 24 hrs by Western blot analysis; assay type: functional, cell-based
A549 [13] = test: Antimigratory activity against human A549 cells assessed as inhibition of migration at 0.1 to 3 uM incubated for 6 hrs by crystal violet staining based by Boyden chamber method; assay type: functional, cell-based; details: dose 0.1-3 µM
A549 [14] = test: Antitumor activity against human A549 cells xenografted in BALB/c mouse assessed as tumor growth delay at 25 mg/kg, po treated daily relative to control
Heat shock protein HSP90 [15] = biological target: T2, Heat shock protein HSP90; test: Inhibition of HSP90 (unknown origin) assessed as competition of fluorescently labelled geldanamycin binding after 2 hrs by microplate reader analysis; assay type: protein assay
[16] = Metabolic stability in CD1 mouse hepatocytes assessed as Intrinsic clearance by LC-MS/MS analysis; assay type: ADME, cell-based, Hepatocyte
[17] = AUC (0 to infinity) in Sprague-Dawley rat at 2 mg/kg, iv measured after 1 hrs by LC-MS/MS analysis; assay type: ADME, organism-based; set-up: route intravenous, dose 2 mg/kg, time 1 hrs; details: in vivo
hERG (KCNH2) = hERG (KCNH2) (Homo sapiens, UniProt Q12809); test: Inhibition of human ERG stably expressed in HEK293 cells at 10 uM measured after 60 mins by [3H]]Astemizole binding assay; assay type: cell-based; details: HEK293 cells stably expressing hERG, probe [3H]astemizole
[18] = Toxicity in BALB/c mouse xenografted with human A549 cells assessed as reduction in body weight at 25 to 50 mg/kg, po treated daily relative to control; details: in vivo
Cytochrome P450 2B6 = biological target: T3, Cytochrome P450 2B6 (Homo sapiens, UniProt P20813); test: Inhibition of CYP2B6 in human liver microsomes using bupropion as substrate by LC-MS/MS analysis; assay type: ADME
T3 sequence (P20813 whole entry): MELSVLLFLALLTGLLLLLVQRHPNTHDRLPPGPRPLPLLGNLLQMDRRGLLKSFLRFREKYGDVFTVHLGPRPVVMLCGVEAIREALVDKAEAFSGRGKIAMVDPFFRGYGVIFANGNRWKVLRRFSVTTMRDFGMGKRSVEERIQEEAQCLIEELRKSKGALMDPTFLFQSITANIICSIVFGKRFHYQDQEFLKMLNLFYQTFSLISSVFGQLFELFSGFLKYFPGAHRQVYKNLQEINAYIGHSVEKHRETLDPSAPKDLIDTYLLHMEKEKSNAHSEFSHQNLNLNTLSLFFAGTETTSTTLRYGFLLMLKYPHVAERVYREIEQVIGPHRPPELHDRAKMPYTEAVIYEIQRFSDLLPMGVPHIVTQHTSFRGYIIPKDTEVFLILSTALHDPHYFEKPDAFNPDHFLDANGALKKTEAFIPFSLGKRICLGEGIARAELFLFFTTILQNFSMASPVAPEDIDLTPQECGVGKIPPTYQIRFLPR

Heat shock protein HSP90 [19] = biological target: T2, Heat shock protein HSP90; test: Inhibition of HSP90 in human A549 cells assessed as downregulation of Src expression at 0.3 uM by immunoblot analysis; details: time hrs <=24, TDE = time-dependent effect
[20] = Volume of distribution at steady state in Sprague-Dawley rat at 2 mg/kg, iv measured after 1 hrs by LC-MS/MS analysis; assay type: ADME, organism-based; details: in vivo, read-out: Vdss
A549 [21] = test: Induction of apoptosis in human A549 cells assessed as increase in cleaved caspase 6 protein expression at 0.3 to 3 uM measured after 18 hrs by western blot analysis; assay type: functional, cell-based; details: dose 0.3-3 µM

Sequence of CYP2D6 (P10635 whole entry): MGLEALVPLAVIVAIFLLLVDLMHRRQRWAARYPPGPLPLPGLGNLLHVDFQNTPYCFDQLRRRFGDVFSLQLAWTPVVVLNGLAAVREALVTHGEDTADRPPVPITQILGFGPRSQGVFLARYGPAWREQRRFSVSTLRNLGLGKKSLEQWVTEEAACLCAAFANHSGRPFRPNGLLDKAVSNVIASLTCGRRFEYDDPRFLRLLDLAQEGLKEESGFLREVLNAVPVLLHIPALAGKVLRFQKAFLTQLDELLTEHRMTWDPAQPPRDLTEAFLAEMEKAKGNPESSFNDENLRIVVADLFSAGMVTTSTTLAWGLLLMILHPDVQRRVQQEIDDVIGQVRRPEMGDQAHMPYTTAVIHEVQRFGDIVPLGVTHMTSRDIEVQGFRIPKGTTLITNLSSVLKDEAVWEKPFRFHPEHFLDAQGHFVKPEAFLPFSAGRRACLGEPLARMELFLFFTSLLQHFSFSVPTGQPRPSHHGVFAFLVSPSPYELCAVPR
Sequence of hERG (KCNH2) (Q12809 whole entry): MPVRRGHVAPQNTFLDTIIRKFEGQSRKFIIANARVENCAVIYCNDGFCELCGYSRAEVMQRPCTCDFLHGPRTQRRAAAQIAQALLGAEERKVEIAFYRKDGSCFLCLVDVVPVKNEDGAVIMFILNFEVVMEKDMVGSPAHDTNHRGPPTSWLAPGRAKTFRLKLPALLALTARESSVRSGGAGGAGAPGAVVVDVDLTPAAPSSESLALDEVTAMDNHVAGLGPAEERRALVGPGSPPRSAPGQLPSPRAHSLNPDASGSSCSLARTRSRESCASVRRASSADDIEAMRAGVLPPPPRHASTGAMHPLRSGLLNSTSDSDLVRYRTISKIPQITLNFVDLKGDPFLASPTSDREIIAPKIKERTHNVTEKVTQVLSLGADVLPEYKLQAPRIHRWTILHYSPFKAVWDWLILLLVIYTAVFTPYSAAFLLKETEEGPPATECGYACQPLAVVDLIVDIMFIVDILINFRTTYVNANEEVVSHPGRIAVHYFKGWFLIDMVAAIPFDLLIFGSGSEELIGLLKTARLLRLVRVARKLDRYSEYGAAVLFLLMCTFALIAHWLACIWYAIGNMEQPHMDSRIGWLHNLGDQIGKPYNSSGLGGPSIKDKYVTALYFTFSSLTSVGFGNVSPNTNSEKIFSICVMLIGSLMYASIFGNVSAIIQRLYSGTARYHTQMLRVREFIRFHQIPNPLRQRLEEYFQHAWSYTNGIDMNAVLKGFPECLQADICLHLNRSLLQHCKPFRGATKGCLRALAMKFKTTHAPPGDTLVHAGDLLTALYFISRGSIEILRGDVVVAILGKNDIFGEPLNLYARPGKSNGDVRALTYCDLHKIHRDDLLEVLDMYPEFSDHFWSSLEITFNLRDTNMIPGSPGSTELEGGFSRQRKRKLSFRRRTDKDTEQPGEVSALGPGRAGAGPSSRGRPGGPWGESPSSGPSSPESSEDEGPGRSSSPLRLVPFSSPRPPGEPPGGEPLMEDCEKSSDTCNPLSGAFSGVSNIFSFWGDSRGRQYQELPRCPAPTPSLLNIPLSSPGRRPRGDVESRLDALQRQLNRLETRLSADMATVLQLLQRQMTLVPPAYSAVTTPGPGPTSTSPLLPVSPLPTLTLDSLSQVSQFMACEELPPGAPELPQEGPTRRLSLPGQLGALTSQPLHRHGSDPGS

In the case of `CCN(C(=O)c1cc(C(C)C)c(O)cc1O)c1cccnc1`, the IC50 (Cytochrome P450 1A2) is reported as > 50 µM, the inhibition (Heat shock protein HSP90 [1]) is reported as “Dose-Dependent Effect” and the Activity (A549 [2]) is reported as “Active”. The AUCt [3] was 737 ng·h/mL, the inhibition at 50 µM (CYP2D6) was 84% and the Cmax [4] was 1580 ng/mL. For the same compound, the CLint [5] was 55.3 mL/min/kg, the Activity (661W) was > 10 µM and the AUC [6] was 811 ng·h/mL. For the same compound, the inhibition in vivo at 50 mg/kg (A549 [7]) was 46.9%, the Activity [8] was “Non-Toxic” and the Activity (A549 [9]) was “inactive”. For the same compound, the inhibition (A549 [10]) was “Dose-Dependent Effect”, the CLhep predicted [11] was 25 mL/min/kg and the Activity (A549 [12]) was “Active”. For the same compound, the Activity (A549 [13]) was “Active”, the Activity (A549 [14]) was 41% and the IC50 (Heat shock protein HSP90 [15]) was 0.11 µM. The CLint [16] was 3080 mL/min/kg, the AUC [17] was 456 ng·h/mL and the inhibition at 1 h, 10 µM (hERG (KCNH2)) was -18%. For the same compound, the Activity [18] was “Non-Toxic”, the IC50 (Cytochrome P450 2B6) was 37.2 µM and the inhibition (Heat shock protein HSP90 [19]) was “Tde”. For the same compound, the Vd [20] was 4.59 L/kg and the Activity (A549 [21]) was “Active”.
